# “And” between values parts separate entries of the source, which are not always exact repeats. Equal values may be shown once.
# Tests used:
# human GnRH receptor = target: T1, human GnRH receptor (Homo sapiens, UniProt P30968); test: affinity for human GnRH receptor; assay type: binding; conditions: compound (VI) as well as its salts such as the choline salt; kind of constant not stated
# T1 sequence (P30968 1-328): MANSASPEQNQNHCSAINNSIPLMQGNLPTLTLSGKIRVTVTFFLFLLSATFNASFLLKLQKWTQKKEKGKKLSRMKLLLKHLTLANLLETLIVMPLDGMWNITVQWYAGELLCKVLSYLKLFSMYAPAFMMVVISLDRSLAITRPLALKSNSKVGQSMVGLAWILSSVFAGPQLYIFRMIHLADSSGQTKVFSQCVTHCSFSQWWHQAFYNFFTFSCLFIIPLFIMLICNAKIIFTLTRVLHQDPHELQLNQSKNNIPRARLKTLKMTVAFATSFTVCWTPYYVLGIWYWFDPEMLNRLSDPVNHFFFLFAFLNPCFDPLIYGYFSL
# [1] = system: human female patients diagnosed as having adenomyosis; test: human clinical trial in adenomyosis (single-patient longitudinal case study and multi-patient analysis, n = 6); assay type: in vivo
# Excerpt: This examples describes the results of a human clinical trial conducted to evaluate the ability of a GnRH antagonist, 3-[2-fluoro-5-(2,3-difluoro-6-methoxybenzyloxy)4-methoxyphenyl]-2,4-dioxo-1,2,3,4-tetrahydrothieno [3,4d]pyrimidine-5-carboxylic acid (represented by formula (VI)), or a pharmaceutically acceptable salt thereof, to treat adenomyosis, an estrogen-dependent disease, in human patients diagnosed as having this condition.
# One aim of this study was to investigate the ability of the GnRH antagonist to maintain its therapeutic effects despite being administered to patients in a progressively lower dosage throughout the trial. To this end, the patients treated in this study was first administered the GnRH antagonist of formula (VI) in an amount of 200 mg/day during an initial 12-week period. The GnRH antagonist was then administered to the patients in a reduced amount of 100 mg/day during a subsequent 12-week period. The patients' responsiveness to the GnRH antagonist was monitored throughout the study.
# In addition to assessing the effectiveness of the GnRH antagonist when administered at lower doses, another aim of this study was to evaluate the ability of the GnRH antagonist to sustain its therapeutic effects even after treatment was ceased altogether. Accordingly, after being periodically administered the GnRH antagonist of formula (VI) over the course of 24 weeks, first in an amount of 200 mg/day and then in an amount of 100 mg/day, treatment with the GnRH antagonist was halted entirely. The patients were then monitored during a post-treatment follow-up period to analyze the extent to which the therapeutic effects of the compound were sustained.
# To test the effects of compound (VI), a total of n=6 human female patients diagnosed as having adenomyosis were administered compound (VI) in accordance with the dosing schedule described above. One of these patients in particular was closely monitored beginning well before their treatment with compound (VI) was initiated. The specific results of this patient's therapy are described in the section entitled “Single-Patient Longitudinal Case Study,” below. The cumulative set of results for all 6 patients is reported in the section entitled “Multi-Patient Analysis,” below.
# As part of the clinical trial, a case study was conducted in which a single patient of reproductive age having clinically diagnosed adenomyosis was monitored during the course of treatment with compound (VI). The patient was nulliparous. Two years before the study began, the patient presented with heavy menstrual bleeding, pelvic pain, and dysmenorrhea. […] Their gynecologist prescribed ulipristal acetate (UPA), a selective progesterone receptor modulator (SPRM), to be administered in an amount of 5 mg/day over the course of a treatment period lasting three months.
# The patient was then recommended for treatment with the GnRH antagonist represented by formula (VI) herein. Accordingly, the patient was orally administered compound (VI) in an amount of 200 mg/day for three months. Following this initial three-month period, the patient was orally administered compound (VI) in a reduced amount of 100 mg/day for a subsequent three-period. During both treatment periods, compound (VI) was administered to the patient in the form of a choline salt.
# The patient was recommended for once-daily treatment with the GnRH antagonist of formula (VI). Accordingly, the patient was administered the GnRH antagonist of formula (VI) in an amount of 200 mg/day during a first treatment period, which lasted three months. At the conclusion of the first treatment period, the patient began a second treatment period in which they were administered compound (VI) in a reduced amount of 100 mg/day for three months. During both treatment periods, compound (VI) was administered to the patient in the form of a choline salt. […]
# [2] = n = 6, after 12 weeks, 200 mg/day
# [3] = single patient, after 24 weeks (200 mg/day 12 weeks, then 100 mg/day 12 weeks)
smiles,measurement,setting,value
"COc1cc(F)c(-n2c(=O)[nH]c3csc(C(=O)O)c3c2=O)cc1OCc1c(OC)ccc(F)c1F [Compound (VI), 3-[2-fluoro-5-(2,3-difluoro-6-methoxybenzyloxy)4-methoxyphenyl]-2,4-dioxo-1,2,3,4-tetrahydrothieno [3,4d]pyrimidine-5-carboxylic acid]",affinity for human GnRH receptor,human GnRH receptor,27.4 nM
same,serum E2,"[1]; all n = 6 cases, first 12 weeks, 200 mg/day",less than 20 pg/ml
same,anemia,"[1]; all n = 6 patients, after 12 weeks, 200 mg/day",resolved
same,adenomyotic lesions by MRI,"[1]; all n = 6 patients, after 24 weeks",remained smaller than those observed at baseline
same,BMD by DEXA,"[1]; each of n = 6 patients, after 24 weeks",either minimal change or no change from baseline
same,Week 24 Uterine Volume,"[1]; individual patients 1-3, 200 mg/day 12 weeks, then 100 mg/day 12 weeks, MRI",440 cm^3 and 75 cm^3 and 266 cm^3
same,Week 12 Uterine Volume,"[1]; individual patients 1-6, 200 mg/day oral for 12 weeks (choline salt), MRI",81 cm^3 and 70 cm^3 (2×) and 290 cm^3 and 84 cm^3 and 138 cm^3
same,side effects,"[1]; n = 6, 200 mg/day treatment period, resolved after reduction to 100 mg/day",hot flushes and vaginal dryness
same,menstrual status,[1]; [2],sustained amenorrhea
same,pelvic pain,[1]; [2],substantially reduced
same,mean uterine volume by MRI,"[1]; n = 6, after 12 weeks, 200 mg/day, baseline mean 320 cm^3",122 cm^3
same,menstrual status,"[1]; n = 6, weeks 13-24, 100 mg/day",remained in amenorrhea
same,all of the remaining EHP-30 scales,"[1]; single patient, after 24 weeks",0
same,endometrial thickness by vaginal ultrasound,"[1]; single patient, after 24 weeks",3 mm
same,hemoglobin (Hb) level,[1]; [3],13.6 g/dL
same,uterine volume by MRI,[1]; [3],440 cm^3
same,menstrual status,"[1]; single patient, after 24 weeks of treatment",still in amenorrhea
same,EHP-30 scale for emotional well-being,"[1]; single patient, after 24 weeks, baseline 58.3",4.2
same,"uterine volume on clinical evaluation, equivalent weeks of gestation","[1]; single patient, after first 12 weeks, 200 mg/day, 16-17 weeks before treatment",10 weeks of gestation
same,uterine volume by MRI,"[1]; single patient, after first 12 weeks, 200 mg/day, baseline approximately 875 cm^3",290 cm^3
same,concentration of E2,"[1]; single patient, after four weeks of 200 mg/day oral (choline salt), baseline 45 pg/mL",less than 20 pg/mL
same,"side effects (hot flushes, vaginal dryness) after dose reduction","[1]; single patient, after reduction to 100 mg/day",disappeared
same,5-scaled EHP-30 score,"[1]; single patient, end of first 12 weeks, 200 mg/day",0
same,side effects,"[1]; single patient, first treatment period, 200 mg/day",a few instances of hot flushes and vaginal dryness
same,menstrual status,"[1]; single patient, initial 12-week period, 200 mg once daily",remained in amenorrhea
same,hemoglobin (Hb) level,"[1]; single patient, week 12, 200 mg/day, baseline 10 g/dL",12.2 g/dL
same,E2 level,"[1]; single patient, week 16, reduced dose 100 mg/day (weeks 13-24)",38 pg/mL
same,E2 level,"[1]; single patient, week 20, reduced dose 100 mg/day (weeks 13-24)",26 pg/mL
same,E2 level,"[1]; single patient, week 24, reduced dose 100 mg/day (weeks 13-24)",52 pg/mL
same,"bone mineral density T-scores and Z-scores (femoral neck, lumbar spine), DEXA","[1]; single patient, week 24 versus baseline",unchanged

# Source: US20220305017A1, “COMPOSITIONS AND METHODS FOR THE TREATMENT OF ESTROGEN-DEPENDENT DISORDERS” (ObsEva S.A., priority 2019, published 2022)
